Test results taken from publication PMC6197228, “Inhibition of TBK1/IKKε Promotes Regeneration of Pancreatic β-cells” (Scientific Reports, 2018).

Assays:
Type in all cases: biochemical
IKKα = target: T1, IKKα (Homo sapiens, UniProt O15111); experiment: kinase profiling, dose response IC50 (selectivity)
T1 construct: gene CHUK
T1 sequence (O15111 1-745): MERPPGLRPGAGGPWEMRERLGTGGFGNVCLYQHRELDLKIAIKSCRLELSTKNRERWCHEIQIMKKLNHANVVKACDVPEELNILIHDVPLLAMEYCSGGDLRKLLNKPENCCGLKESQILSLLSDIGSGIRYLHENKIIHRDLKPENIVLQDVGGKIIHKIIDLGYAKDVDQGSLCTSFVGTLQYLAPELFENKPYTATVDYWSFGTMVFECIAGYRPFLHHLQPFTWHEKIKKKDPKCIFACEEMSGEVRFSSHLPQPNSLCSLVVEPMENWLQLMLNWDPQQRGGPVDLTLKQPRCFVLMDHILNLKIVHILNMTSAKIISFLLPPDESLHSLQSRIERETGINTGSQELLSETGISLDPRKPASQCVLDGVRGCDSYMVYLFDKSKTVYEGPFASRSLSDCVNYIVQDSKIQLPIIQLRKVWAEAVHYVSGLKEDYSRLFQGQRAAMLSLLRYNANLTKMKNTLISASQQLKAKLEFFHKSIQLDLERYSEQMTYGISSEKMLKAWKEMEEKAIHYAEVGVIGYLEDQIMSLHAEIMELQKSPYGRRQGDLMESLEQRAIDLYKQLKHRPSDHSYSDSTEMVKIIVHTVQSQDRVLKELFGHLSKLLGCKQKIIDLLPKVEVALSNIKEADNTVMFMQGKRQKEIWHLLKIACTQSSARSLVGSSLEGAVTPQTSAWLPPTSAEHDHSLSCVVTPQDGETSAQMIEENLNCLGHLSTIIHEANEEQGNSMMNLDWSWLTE

[1] = target: T2, TANK-binding kinase 1 (TBK1) (Homo sapiens, UniProt Q9UHD2); experiment: kinase profiling, dose response IC50
T2 sequence (Q9UHD2 1-729): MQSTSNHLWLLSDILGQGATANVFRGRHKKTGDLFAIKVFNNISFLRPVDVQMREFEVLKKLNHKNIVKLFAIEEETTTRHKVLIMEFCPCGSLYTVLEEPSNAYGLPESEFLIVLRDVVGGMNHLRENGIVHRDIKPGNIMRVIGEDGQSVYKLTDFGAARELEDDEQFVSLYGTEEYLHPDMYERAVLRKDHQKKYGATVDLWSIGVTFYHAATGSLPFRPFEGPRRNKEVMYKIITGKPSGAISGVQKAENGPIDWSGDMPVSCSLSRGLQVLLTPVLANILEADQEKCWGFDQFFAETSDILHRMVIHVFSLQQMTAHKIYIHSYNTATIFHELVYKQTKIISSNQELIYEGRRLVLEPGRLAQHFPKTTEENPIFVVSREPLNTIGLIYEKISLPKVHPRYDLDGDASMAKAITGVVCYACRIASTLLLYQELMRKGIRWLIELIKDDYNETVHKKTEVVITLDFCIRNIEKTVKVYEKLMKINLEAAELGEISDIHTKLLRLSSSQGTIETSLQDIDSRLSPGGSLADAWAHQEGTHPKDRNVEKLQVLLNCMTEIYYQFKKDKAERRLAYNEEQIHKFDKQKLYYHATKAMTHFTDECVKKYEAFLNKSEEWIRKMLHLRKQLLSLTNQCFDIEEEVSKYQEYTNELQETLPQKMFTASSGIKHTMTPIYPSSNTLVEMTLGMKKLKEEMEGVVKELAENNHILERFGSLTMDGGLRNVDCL

IKKβ = target: T3, IKKβ (Homo sapiens, UniProt O14920); experiment: kinase profiling, dose response IC50 (selectivity)
T3 construct: gene IKBKB
T3 sequence (O14920 1-756): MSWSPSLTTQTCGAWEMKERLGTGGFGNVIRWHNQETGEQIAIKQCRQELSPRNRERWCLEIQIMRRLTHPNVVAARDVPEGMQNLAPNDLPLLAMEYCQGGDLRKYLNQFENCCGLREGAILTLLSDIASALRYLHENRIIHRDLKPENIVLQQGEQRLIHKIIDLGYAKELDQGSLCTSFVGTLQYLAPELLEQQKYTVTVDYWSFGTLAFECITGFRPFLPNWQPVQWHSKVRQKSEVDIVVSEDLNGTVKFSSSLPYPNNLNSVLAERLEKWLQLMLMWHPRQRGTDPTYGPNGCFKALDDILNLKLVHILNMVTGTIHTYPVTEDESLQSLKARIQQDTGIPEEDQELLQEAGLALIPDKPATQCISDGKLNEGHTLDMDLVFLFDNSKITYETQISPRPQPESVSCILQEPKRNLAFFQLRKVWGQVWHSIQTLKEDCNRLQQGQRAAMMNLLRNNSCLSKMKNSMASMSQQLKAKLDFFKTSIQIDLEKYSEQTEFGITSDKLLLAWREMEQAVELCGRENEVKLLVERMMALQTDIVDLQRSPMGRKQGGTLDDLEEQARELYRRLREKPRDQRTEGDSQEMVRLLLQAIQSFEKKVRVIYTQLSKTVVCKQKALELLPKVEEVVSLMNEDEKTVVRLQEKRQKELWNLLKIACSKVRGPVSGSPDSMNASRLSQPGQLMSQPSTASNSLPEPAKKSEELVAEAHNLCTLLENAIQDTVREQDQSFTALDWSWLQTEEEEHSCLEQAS

IκB kinase ε (IKKε) = target: T4, IκB kinase ε (IKKε) (Homo sapiens, UniProt Q14164); experiment: kinase profiling, dose response IC50
T4 construct: gene IKBKE
T4 sequence (Q14164 1-716): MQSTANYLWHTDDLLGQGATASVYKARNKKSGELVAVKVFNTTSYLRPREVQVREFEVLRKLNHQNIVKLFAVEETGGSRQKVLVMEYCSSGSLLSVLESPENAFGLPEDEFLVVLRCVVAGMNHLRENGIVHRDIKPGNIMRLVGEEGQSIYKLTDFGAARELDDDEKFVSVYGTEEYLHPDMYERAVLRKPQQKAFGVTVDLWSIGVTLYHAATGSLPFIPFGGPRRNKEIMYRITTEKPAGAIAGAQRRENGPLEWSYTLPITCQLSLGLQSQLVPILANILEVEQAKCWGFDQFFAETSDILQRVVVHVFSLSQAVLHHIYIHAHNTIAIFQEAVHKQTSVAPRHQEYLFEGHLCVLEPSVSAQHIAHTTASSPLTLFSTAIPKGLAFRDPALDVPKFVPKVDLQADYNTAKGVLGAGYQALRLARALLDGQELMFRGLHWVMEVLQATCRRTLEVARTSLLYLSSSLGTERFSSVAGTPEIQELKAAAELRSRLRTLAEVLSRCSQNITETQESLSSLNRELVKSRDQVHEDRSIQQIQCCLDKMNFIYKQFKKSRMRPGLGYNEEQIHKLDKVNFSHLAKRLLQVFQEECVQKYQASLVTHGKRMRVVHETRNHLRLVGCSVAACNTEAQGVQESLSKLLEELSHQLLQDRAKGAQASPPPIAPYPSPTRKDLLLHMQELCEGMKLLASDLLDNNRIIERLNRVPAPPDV

Compound `O=C(O)/C=C/c1ccc2noc(-c3ccccc3)c2c1` [PIAA, (E)-3-(3-phenylbenzo[c]isoxazol-5-yl)acrylic acid] has an IC50 (IKKα) of 47.2 µM, an IC50 [1] of 0.4 µM and an IC50 (IKKβ) of 50.5 µM. It also gave an IC50 (IκB kinase ε (IKKε)) of about 1.07 µM.
